Experiment: xn = mol fraction of the nth substance listed
Conditions: Gas, Vibrating wire viscometry

C [methane] + CCC
x2 = 0.0548
Conditions | viscosity [mPa·s]
280.16 K, 610 kPa | 0.01039
280.16 K, 1550 kPa | 0.01051
280.17 K, 3150 kPa | 0.01083
280.17 K, 4970 kPa | 0.01143
280.18 K, 5880 kPa | 0.01179
280.2 K, 6560 kPa | 0.01211
280.21 K, 6970 kPa | 0.0123
298.18 K, 870 kPa | 0.01083
298.18 K, 1450 kPa | 0.01096
298.19 K, 4110 kPa | 0.01163
298.2 K, 2650 kPa | 0.01124
298.2 K, 5430 kPa | 0.01211
298.22 K, 6340 kPa | 0.01244
298.22 K, 6700 kPa | 0.01259

C [methane] + O=C=O
x1 = 0.57
Conditions | viscosity [mPa·s]
280.17 K, 6410 kPa | 0.01457
280.2 K, 5490 kPa | 0.01408
280.22 K, 4480 kPa | 0.01364
280.24 K, 3500 kPa | 0.01338
280.31 K, 2510 kPa | 0.0131
280.32 K, 1510 kPa | 0.01303
303.18 K, 5440 kPa | 0.01477
303.18 K, 6330 kPa | 0.01523
303.19 K, 3500 kPa | 0.01411
303.19 K, 4500 kPa | 0.0144
303.2 K, 1500 kPa | 0.01381
303.2 K, 2500 kPa | 0.01387
328.13 K, 6450 kPa | 0.01573
328.14 K, 3490 kPa | 0.01477
328.14 K, 4490 kPa | 0.01504
328.14 K, 5500 kPa | 0.01538
328.15 K, 2500 kPa | 0.01453
328.16 K, 1510 kPa | 0.01447

From the NIST ThermoML archive (doi:10.1021/je500083n)
